Assay results as given in patent publication US20100292229A1, “TRYPHOSTIN-ANALOGS FOR THE TREATMENT OF CELL PROLIFERATIVE DISEASES” (The Board of Regents of the University of Texas System, priority 2006, published 2010).
Where a SMILES comes first, the peptide text is derived from it. The star is where a group is joined. Cbz = O=C(OCc1ccccc1)*

Experiments:
[1] = system: MM-1 cells; experiment: MTT assay of cell growth and survival, MM-1 cells; assay type: cell-based
Method: (§1) All compounds are tested for purity (HPLC, NMR) and the calculated molecular weight is used to make up a 10 mM stock solution of each compound (in 100% dimethylsulfoxide or 50% dimethylsulfoxide:50% polyethylene glycol 300). Compounds are diluted into cell culture media consisting of RPMI 1640 with 10% fetal bovine serum to a final starting concentration of 10 μM. [Highest final DMSO content=0.1%.]. Tumor cells (20,000 for non-adherent cells; 5,000 for adherent cells) are plated into individual wells of a 96-well culture plate in 0.1 ml of culture media. Diluted compounds are added to individual wells containing pre-plated cells (final volume 0.2 ml) and incubated at 37° C. for 24 to 72 h. Wells receiving vehicle alone acted as a control.
(§2) MTT (viability) assay. MTT reagent (20 μl of 5 mg/ml stock solution, Sigma) is added to the cells and the plates are incubated at 37° C. for another 2 h. Cells are lysed by adding 100 μl of lysis buffer (20% SDS in 50% N,N-dimethylformamide (Sigma) adjusted to pH 4.7 by 80% acetic acid and 1 M HCl such that the final concentration of acetic acid is 2.5% and HCl is 2.5%) into each well and incubated for 6 h. The OD570 of each sample is determined by using a SPECTRA MAX M2 plate reader (Molecular Devices). The OD in control and treated wells is used as an estimate of the effect of compounds on cell growth and survival.
Cell lines. […] A375 melanoma cells were grown and maintained in the same media. Ba/F3 parental cells were grown in RPMI 1640 containing 10% heat inactivated fetal bovine serum and 2 mM glutamine supplemented with IL-3 (1 ng/ml) while Ba/F3 cells stably expressing Bcr/Abl or the T315I mutant of Bcr/Abl were grown in RPMI 1640 containing 10% heat inactivated fetal bovine serum and 2 mM glutamine in the absence of IL-3. Normal human dermal fibroblasts (NHDF) were obtained from Cambrex (Walkersville, Md.) and grown in specially formulated media (obtained through Cambrex) with 20% fetal calf serum.
IC50 determinations. The anti-tumor activity of certain compounds of the present invention against MM-1 cell lines was investigated and the IC50 values calculated (FIGS. 33A-F). In a typical experiment, MM-1 cell lines were incubated with a range of compound concentrations for 72 h to determine the concentration required to inhibit cell growth or induce apoptosis by 50% (IC50). MTT assays as described above were used to conduct this analysis.

[2] = system: p70 and p55 tyrosine phosphorylation; experiment: Phosphotyrosine (4G10) immunoblot in B-cell malignancy cell lines; assay type: cell-based; settings: 2 h; MM-1, LP or Mino cells
Method: MM-1 cells were pretreated with Degrasyn (at the concentration indicated) for 2 h before the addition of IL-6 for 15 min (as noted). Total cell lysates were prepared and equal protein aliquots were resolved by SDS-PAGE and immunoblotted for phosphotyrosine (4G10).
MM-1 and LP (lymphoma) cells were treated with Degrasyn (at the concentration indicated) for 2 h before cell lysates were prepared and equal protein aliquots were resolved by SDS-PAGE and immunoblotted for phosphotyrosine (4G10).
MM-1 and Mino (Mantle cell lymphoma) cells were treated with Degrasyns with different levels of anti-tumor efficacy (at the concentration indicated) for 2 h before cell lysates were prepared and equal protein aliquots were resolved by SDS-PAGE and immunoblotted for phosphotyrosine (4G10).
MM-1 cells were treated as indicated before analysis of cellular tyrosine phosphorylation by immunoblotting. Both p70 and p55 were tyrosine phosphorylated after 15 min of Degrasyn treatment which peaks in intensity after 1 h and remains higher than control levels after 4 h. These early changes may underlie or be a marker of Degrasyn activity in B-cell malignancies.
(§3) Western Blot analysis. Cells were harvested, washed twice in cold 1×PBS and lysed in modified RIPA lysis buffer (150 mM NaCl, 1% NP-40, 0.5% Na-deoxycholate [DOC], 0.1% Na-dodecyl sulfate [SDS], 50 mM Tris-HCl (pH 7.5), 1 mM EDTA, 1 mM NaF, 2 mM Na-vanadate, with protease inhibitors (1 mM PMSF, 1 mM benzamidine, 10 μg/ml aprotinin, 10 μg/ml leupeptin) on ice for 30 min. The lysed cells were centrifuged at 13,000 rpm for 30 min and the supernatant collected. The protein concentration of the cell lysate was determined by the Bradford Protein Assay. Fifty to 60 μg of protein were resolved in a 10% SDS-PAGE, and transferred to a PVDF membrane. Western blotting was performed using specific primary antibodies Peroxidase-conjugated affiniPure anti-Mouse Anti-Rabbit secondary antibodies (Jackson Immunoresearch Laboratories, West Grove, Pa.). The proteins were visualized with ECL Plus reagents (Amersham Biosciences).

[3] = biological target: T1, c-myc (Homo sapiens, UniProt P01106); experiment: c-myc protein immunoblot in MM-1 cells; assay type: cell-based; settings: for Effect of inhibitor pretreatment on Degrasyn-mediated c-myc protein reduction: inhibitor 2 h, then 5 μM Degrasyn 2 h
T1 construct: endogenous in cells; host or cells: MM-1 cells
Method: Top: MM-1 cells were incubated with 5 μM Degrasyn for the interval noted before cell lysates were prepared and subjected to immunoblotting for c-myc and actin as a protein loading control.
Middle: MM-1 cells were treated with the indicated concentration of Degrasyn for 1 h before lysates were immunoblotted for c-myc and actin.
Bottom: MM-1 cells were treated as indicated before extraction of total RNA (TRIzol). RNA was resolved by agarose electrophoresis, transferred to a membrane and hybridized with a c-myc probe to determine the level of c-myc RNA in each sample. The ethidium bromide stained gel was photographed and 28S RNA content was detected as a measure of RNA content in each lane.
MM-1 cells were pretreated with protease/proteosome inhibitors (LLnL; LLnM; E-64d; MG132; PS341; Chloroquine; Ammonium Chloride; Cycloheximide) for 2 h before the addition of 5 μM Degrasyn or vehicle alone (DMSO as indicated) for an additional 2 h. Cell lysates were prepared and equal protein aliquots were subjected to immunoblotting for c-myc, Max (a c-myc binding partner) or actin as a protein loading control.
Pictured: MM-1 cells were treated with biotinylated Degrasyn (Bio-Deg) or Degrasyn (at the indicated concentration) for 1 h before analyzing effects on c-myc as described in FIG. 15.
as §3

[4] = system: K562 cells; experiment: MTT assay of cell growth and survival, K562 cells; assay type: cell-based, human; settings: FIG. 21; anti-tumor activity
Method: as §1, §2
Cell lines. […]

[5] = biological target: T2, nucleophosmin (NPM) (Homo sapiens, UniProt P06748); experiment: Affinity recovery of Degrasyn interactive proteins with streptavidin beads; assay type: binding; settings: MM-1 or K562 cell lysates
T2 construct: endogenous in cells; host or cells: MM-1 and K562 cell lysates
Method: Biotinylated-Degrasyn (10 μM) was incubated with lysates from MM-1 cells (10 mg total protein) and interactive proteins were assessed by affinity recovery using Streptavidin-conjugated beads to bind biotinylated-Degrasyn. Free Degrasyn (10 μM) was incubated with biotinylated-Degrasyn in a parallel experiment to assist in identifying specific protein:Degrasyn interactions. Affinity complexes were washed and Streptavidin-Bio-Deg interaction proteins were assessed by disrupting protein complexes with SDS-sample buffer and resolving proteins by SDS-PAGE. The resolved proteins were detected by silver-staining the gel. Protein bands present in the biotinylated-Degrasyn sample that were absent in samples co-incubated with free Degrasyn were identified and cut from the gel. A 38 kDa protein band was prominent in this assessment and was subjected to in gel trypsinization and identification of HPLC resolved tryptic peptides by tandem mass spectroscopy analysis (David Hawke, Department of Molecular Pathology, M.D. Anderson Cancer Center). This analysis identified nucleophosmin (NPM) as a Degrasyn interactive protein.
To further assess the interaction between NPM and Degrasyn, biotinylated-Degrasyn/streptavidin beads were incubated with MM-1 (left) or K562 (right) cell lysates. In parallel, lysates were co-incubated with free Degrasyn to determine the specificity of the interaction with NPM. […]

T1 sequence (P01106 16-454 limits assumed): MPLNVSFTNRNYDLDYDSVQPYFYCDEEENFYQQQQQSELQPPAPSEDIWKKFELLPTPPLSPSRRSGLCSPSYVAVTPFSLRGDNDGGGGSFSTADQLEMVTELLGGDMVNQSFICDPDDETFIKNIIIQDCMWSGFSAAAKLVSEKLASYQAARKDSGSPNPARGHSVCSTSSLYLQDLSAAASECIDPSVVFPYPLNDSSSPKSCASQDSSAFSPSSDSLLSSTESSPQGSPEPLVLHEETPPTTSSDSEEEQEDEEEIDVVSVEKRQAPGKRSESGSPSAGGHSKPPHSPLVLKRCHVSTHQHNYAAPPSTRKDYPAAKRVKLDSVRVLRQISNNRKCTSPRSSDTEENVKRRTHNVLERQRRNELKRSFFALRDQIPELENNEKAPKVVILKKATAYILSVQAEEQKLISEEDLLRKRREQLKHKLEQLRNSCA
T2 sequence (P06748 whole entry): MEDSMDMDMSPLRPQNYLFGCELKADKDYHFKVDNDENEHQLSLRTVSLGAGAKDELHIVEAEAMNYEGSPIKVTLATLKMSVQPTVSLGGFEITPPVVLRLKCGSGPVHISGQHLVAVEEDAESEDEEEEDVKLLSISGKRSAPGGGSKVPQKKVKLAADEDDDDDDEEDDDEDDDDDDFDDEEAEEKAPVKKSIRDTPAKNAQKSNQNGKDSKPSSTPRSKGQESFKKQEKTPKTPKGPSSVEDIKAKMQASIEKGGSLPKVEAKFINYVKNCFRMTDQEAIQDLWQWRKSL

## N#C/C(=C\c1cccc(Br)n1)C(=O)NC(c1ccccc1)C1CC1 (stereo not drawn) [BDT-16]
[1]; FIG. 28
  Anti-tumor activity relative to WP1130: greater anti-tumor activity than WP1130
[2]
  Tyrosine phosphorylated protein species (~70 kDa, ~55 kDa): more potently stimulates tyrosine phosphorylation

## CC(C)C[C@H](NC(=O)[C@H](Cc1ccccc1)NC(=O)c1cnccn1)B(O)O [PS341, reference compound]
[3]
  Effect of inhibitor pretreatment on Degrasyn-mediated c-myc protein reduction: block Degrasyn-mediated c-myc protein reduction

## 2-Propenamide, 2-cyano-3-(3-bromo 2-pyridinyl)-N-(2-phenyl-2-ethylene)-1-biotinyl ester-(E) [Bio-Degrasyn]
[1]; FIG. 21, anti-tumor activity, read-out: IC50 for MM-1 cells
  IC50: 3.8 µM
[1]; MM-1 and K562 cells, relative to Degrasyn
  Reduction of anti-tumor activity by biotinylation: ~2 fold
[4]
  IC50: 5.6 µM
[3]; FIG. 21, 1 h
  c-myc protein levels: reduced c-myc protein levels
[5]
  Interaction with NPM: recovered NPM from cell lysates

## CC(C)C[C@@H](C=O)NC(=O)[C@H](CC(C)C)NC(=O)[C@H](CC(C)C)NC(=O)OCc1ccccc1 [MG132, reference compound] (Cbz-Leu-Leu-Leu-aldehyde)
[3]
  Effect of inhibitor pretreatment on Degrasyn-mediated c-myc protein reduction: block Degrasyn-mediated c-myc protein reduction
